# Columns and labels:
# [1] = molecular target: T1, Muscarinic acetylcholine receptor M4 (Homo sapiens) (UniProt P08173); assay: Positive allosteric modulation of human M4 AchR expressed in CHO cells assessed as increase in acteylcholine-induced calcium mobilization by FLIPR assay; assay type: functional, cell-based
# T1 sequence (whole entry): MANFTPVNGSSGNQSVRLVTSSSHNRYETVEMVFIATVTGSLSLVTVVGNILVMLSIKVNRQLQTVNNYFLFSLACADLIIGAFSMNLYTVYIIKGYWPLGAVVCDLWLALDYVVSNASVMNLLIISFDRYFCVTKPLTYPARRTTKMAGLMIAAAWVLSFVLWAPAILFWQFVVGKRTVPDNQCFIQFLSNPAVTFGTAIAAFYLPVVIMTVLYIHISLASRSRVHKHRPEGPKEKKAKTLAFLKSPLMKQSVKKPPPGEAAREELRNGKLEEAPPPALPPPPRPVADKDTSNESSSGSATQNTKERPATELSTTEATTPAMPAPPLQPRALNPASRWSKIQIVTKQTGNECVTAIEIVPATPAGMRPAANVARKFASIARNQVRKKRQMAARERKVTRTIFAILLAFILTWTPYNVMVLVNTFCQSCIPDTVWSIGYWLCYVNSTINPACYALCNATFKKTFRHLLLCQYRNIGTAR
# [2] = molecular target: T2, 5-hydroxytryptamine receptor 2C (Homo sapiens) (UniProt P28335); assay: Positive allosteric modulation of 5-HT2C receptor (unknown origin) assessed as increase in 5-HT-induced displacement of [3H]mesulergine by measuring fold reduction in 5-HT Ki at 20 uM relative to control
# T2 sequence (whole entry): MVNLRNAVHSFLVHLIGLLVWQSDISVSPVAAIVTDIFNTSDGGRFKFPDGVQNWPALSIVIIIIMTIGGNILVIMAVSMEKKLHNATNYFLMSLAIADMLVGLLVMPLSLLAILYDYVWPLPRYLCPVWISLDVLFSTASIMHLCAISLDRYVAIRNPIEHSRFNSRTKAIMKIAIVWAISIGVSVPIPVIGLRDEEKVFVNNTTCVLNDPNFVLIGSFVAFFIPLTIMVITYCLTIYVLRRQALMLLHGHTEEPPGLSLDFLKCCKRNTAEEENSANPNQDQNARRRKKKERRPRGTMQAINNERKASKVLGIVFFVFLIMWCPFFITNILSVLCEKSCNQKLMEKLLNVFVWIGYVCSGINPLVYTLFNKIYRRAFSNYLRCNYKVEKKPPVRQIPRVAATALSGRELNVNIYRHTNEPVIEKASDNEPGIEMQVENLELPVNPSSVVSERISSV
# [3] = molecular target: T2, 5-hydroxytryptamine receptor 2C (Homo sapiens); assay: Agonist activity at 5-HT2C receptor (unknown origin) expressed in HEK293 cells assessed as IP3 release at 10 uM relative to 5-HT maximal response
# [4] = molecular target: T3, Muscarinic acetylcholine receptor M4 (Rattus norvegicus, UniProt P08485); assay: Positive allosteric modulation of rat M4 AchR
# T3 sequence (P08485 whole entry): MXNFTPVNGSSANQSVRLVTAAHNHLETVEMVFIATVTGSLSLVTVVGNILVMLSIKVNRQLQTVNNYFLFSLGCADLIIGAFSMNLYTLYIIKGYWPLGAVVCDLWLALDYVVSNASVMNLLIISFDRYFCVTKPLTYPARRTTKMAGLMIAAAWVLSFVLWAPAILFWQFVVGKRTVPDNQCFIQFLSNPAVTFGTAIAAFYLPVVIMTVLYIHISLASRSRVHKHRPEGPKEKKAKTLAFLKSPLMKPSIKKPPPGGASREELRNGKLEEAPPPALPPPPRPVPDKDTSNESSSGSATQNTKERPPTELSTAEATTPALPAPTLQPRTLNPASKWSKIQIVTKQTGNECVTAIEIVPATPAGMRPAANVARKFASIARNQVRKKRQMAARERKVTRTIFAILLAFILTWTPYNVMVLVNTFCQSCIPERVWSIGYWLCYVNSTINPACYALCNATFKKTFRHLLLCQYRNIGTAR
# [5] = molecular target: T4, Muscarinic acetylcholine receptor M4 (Homo sapiens, UniProt P08173); assay: Positive allosteric modulation of human M4 AchR
# T4 sequence (P08173 whole entry): T1 sequence (whole entry)
# [6] = molecular target: T5, C-X-C chemokine receptor type 1 (Homo sapiens, UniProt P25024); assay: Inhibition of CXCR1 (unknown origin)
# T5 sequence (P25024 whole entry): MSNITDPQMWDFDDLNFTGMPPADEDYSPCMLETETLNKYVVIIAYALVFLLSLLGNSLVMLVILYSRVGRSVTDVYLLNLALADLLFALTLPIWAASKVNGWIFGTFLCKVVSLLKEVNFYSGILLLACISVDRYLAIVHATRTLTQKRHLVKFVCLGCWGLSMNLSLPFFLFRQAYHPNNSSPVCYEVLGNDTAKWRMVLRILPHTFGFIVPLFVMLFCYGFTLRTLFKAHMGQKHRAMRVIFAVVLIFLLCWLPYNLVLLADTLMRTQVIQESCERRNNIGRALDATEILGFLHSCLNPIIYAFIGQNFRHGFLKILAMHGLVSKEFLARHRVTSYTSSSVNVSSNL
# [7] = molecular target: T6, C-X-C chemokine receptor type 2 (Homo sapiens, UniProt P25025); assay: Inhibition of CXCR2 (unknown origin)
# T6 sequence (P25025 whole entry): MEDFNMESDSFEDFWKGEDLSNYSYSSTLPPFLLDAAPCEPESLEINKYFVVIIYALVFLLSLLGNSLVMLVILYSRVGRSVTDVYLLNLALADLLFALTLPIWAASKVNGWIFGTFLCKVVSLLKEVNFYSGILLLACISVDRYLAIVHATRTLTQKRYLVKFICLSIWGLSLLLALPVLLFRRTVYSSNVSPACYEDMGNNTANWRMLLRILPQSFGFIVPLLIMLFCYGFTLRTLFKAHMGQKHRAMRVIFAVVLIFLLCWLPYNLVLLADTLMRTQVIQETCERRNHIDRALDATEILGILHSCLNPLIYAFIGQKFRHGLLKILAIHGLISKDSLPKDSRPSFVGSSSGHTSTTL
# [8] = molecular target: T7, Muscarinic acetylcholine receptor M5 (Homo sapiens) (UniProt P08912); assay: Positive allosteric modulation of M5 AchR (unknown origin) assessed as increase in acetylcholine-induced response relative to control
# T7 sequence (whole entry): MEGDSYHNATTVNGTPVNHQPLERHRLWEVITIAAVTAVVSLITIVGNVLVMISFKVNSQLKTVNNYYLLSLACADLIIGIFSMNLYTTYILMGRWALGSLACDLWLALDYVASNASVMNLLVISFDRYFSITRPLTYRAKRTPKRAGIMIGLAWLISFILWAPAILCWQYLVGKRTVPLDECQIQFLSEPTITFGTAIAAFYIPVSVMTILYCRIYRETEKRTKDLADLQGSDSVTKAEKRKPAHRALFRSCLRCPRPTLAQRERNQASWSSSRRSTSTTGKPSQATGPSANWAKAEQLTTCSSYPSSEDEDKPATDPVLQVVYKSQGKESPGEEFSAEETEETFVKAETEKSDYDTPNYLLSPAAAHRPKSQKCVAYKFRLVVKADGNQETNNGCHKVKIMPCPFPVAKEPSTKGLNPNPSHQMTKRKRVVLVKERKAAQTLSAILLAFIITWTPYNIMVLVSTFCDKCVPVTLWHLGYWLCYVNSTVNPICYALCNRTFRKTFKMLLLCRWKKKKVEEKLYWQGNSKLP
# [9] = molecular target: T8, Substance-K receptor (Homo sapiens) (UniProt P21452); assay: Negative allosteric modulation of NK2 receptor (unknown origin) assessed as decrease in agonist-induced cAMP production at 10 uM by cell based FRET assay relative to control; assay type: functional
# T8 sequence (whole entry): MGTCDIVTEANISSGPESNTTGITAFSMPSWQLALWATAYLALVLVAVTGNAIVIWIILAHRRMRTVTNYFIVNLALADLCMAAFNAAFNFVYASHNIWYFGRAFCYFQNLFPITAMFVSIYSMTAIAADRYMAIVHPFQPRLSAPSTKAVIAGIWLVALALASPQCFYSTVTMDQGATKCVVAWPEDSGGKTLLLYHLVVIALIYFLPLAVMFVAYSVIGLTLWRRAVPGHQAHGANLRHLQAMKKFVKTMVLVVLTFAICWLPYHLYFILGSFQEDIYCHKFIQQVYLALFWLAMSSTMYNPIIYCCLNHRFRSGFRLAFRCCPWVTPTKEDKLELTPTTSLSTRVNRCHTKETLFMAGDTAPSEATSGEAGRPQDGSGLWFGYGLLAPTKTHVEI
# [10] = molecular target: Cannabinoid receptor 1 (Mus musculus) (UniProt P47746); assay: Positive allosteric modulation of CB1R in MF1 mouse brain membranes assessed as increase in anandamide-stimulated [35S]GTPgammaS binding after 60 mins relative to control; assay type: functional, cell membranes
# [11] = molecular target: Cannabinoid receptor 1 (Mus musculus) (UniProt P47746); assay: Positive allosteric modulation of CB1R in MF1 mouse brain membranes assessed as increase in [3H]WIN55212-2 binding after 60 mins relative to control; assay type: cell membranes
# [12] = molecular target: Cannabinoid receptor 1 (Mus musculus) (UniProt P47746); assay: Positive allosteric modulation of CB1R in MF1 mouse brain membranes assessed as increase in [3H]CP55940 binding after 60 mins relative to control; assay type: cell membranes
# [13] = molecular target: Cannabinoid receptor 1 (Homo sapiens) (UniProt P21554); assay: Positive allosteric modulation of human CB1R assessed as potentiation of CP55940-induced calcium mobilization at […] by cell based assay relative to control; assay type: functional
# [14] = molecular target: T9, C-X-C chemokine receptor type 3 (Homo sapiens) (UniProt P49682); assay: Inhibition of [3H]RAMX3 binding to CXCR3 (unknown origin) relative to control; details: concentration not given here
# T9 sequence (whole entry): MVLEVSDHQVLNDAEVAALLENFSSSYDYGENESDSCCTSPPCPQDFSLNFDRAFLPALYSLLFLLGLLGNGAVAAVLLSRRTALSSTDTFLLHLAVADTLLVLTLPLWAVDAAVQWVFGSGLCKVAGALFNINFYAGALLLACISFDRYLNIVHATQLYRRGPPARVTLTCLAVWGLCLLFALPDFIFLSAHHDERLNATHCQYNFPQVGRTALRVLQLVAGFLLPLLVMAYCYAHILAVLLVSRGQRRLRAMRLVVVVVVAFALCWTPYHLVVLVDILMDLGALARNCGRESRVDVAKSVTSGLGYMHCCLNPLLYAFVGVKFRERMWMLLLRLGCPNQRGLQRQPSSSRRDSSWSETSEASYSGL
# [15] = molecular target: T10, Muscarinic acetylcholine receptor M1 (Homo sapiens, UniProt P11229); assay: Positive allosteric modulation of M1 AchR (unknown origin)
# T10 sequence (P11229 whole entry): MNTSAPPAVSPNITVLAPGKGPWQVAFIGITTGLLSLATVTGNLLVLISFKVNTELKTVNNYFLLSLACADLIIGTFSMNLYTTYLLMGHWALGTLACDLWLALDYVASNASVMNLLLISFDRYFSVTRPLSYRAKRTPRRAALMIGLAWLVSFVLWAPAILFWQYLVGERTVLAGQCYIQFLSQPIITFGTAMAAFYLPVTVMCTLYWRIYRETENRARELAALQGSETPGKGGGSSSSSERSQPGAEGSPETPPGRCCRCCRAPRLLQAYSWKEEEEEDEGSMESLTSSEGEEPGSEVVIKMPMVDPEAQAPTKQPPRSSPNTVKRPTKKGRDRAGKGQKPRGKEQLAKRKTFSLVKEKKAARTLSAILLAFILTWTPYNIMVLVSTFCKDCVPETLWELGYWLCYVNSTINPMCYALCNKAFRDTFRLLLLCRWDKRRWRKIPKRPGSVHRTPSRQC
# [16] = molecular target: D(2) dopamine receptor (Homo sapiens) (UniProt P14416); assay: Negative allosteric modulation of D2R (unknown origin) assessed as decrease in [3H]NPA binding at 1 uM relative to control
# [17] = molecular target: D(2) dopamine receptor (Homo sapiens) (UniProt P14416); assay: Negative allosteric modulation of D2R (unknown origin) assessed as decrease in [3H]NPA binding at 10 uM relative to control
# Chain of Cannabinoid receptor 1 (Mus musculus) (P47746 whole entry): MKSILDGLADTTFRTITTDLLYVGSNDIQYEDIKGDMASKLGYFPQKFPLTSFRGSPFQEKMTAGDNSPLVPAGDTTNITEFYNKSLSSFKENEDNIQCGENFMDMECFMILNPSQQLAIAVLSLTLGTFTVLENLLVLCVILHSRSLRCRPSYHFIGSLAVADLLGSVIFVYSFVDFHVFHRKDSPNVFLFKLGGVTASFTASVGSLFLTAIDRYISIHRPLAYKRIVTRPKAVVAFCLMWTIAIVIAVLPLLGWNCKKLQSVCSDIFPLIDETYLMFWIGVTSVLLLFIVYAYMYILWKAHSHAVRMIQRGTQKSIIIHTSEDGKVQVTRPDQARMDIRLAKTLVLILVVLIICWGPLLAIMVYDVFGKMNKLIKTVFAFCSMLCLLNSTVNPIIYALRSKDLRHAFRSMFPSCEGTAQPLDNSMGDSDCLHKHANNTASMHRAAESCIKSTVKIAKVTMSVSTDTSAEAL
# Chain of D(2) dopamine receptor (Homo sapiens) (P14416 whole entry): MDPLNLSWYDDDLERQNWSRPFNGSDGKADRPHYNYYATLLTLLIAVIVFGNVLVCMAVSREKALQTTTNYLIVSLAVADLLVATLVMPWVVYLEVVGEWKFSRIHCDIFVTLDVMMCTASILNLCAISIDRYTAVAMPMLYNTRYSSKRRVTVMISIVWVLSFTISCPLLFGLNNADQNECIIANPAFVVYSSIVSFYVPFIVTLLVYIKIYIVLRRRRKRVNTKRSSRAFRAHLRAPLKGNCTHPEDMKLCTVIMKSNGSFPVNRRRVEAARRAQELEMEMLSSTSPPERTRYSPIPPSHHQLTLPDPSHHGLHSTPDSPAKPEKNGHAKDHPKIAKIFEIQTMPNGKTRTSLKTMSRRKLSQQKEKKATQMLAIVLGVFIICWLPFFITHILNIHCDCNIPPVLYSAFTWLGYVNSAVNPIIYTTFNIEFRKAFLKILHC
# Chain of Cannabinoid receptor 1 (Homo sapiens) (P21554 whole entry): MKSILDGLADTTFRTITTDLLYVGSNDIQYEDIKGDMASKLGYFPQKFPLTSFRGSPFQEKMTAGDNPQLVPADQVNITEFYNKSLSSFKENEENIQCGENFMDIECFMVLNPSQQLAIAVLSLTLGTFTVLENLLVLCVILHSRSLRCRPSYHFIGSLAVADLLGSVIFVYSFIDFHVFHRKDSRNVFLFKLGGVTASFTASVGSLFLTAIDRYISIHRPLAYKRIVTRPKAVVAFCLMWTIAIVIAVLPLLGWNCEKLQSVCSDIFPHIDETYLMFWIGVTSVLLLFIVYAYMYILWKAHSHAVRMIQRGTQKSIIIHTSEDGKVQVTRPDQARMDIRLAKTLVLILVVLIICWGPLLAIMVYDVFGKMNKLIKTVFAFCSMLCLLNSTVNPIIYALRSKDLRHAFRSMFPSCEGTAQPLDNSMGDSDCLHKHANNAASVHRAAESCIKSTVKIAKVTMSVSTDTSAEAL
smiles,measurement,setting,value
COc1nc2sc(C(=O)NC3CC3)c(N)c2c(C)c1Cl,Kb,[1],200 nM
CCCCCCCCCCC[C@@H]1CCN[C@H](C(=O)N[C@@H]([C@H]2O[C@H](SC)[C@H](O)[C@@H](O)[C@H]2O)[C@H](C)Cl)C1,fold change (FC),[2],25
same,Emax,[3],< 71%
Cc1cc(OCc2ccncc2)nc2sc(C(=O)NCc3cccc(F)c3F)c(N)c12,EC50,[4],2400 nM
same,EC50,[5],95 nM
C[C@@H](C(=O)NS(C)(=O)=O)c1ccc(OS(=O)(=O)C(F)(F)F)cc1,IC50,[6],0.1 nM
same,IC50,[7],0.1 nM
CCN(Cc1ccccc1C(F)(F)F)C(=O)C1CCN(S(=O)(=O)c2ccc3[nH]ncc3c2)CC1,fold change (FC),[8],9.3
N#CCN(Cc1ccccc1)Cc1ccc2ccccc2c1,inhibition,[9],30%
Cc1ccc2c(C(C[N+](=O)[O-])c3cccs3)c(-c3ccccc3)[nH]c2c1 (stereo not given),Activity,[10],40%
same,Emax,[11],225%
same,Emax,[12],207%
Cc1ccc([C@H]2CC3CCC([C@H]2c2cc(-c4ccc(Cl)cc4)no2)N3C)cc1 (stereo not given in full),Emax,[13],36%
CCOc1ccc(-n2c(C(C)N(CC3CCN(Cc4ccc(C5(C(F)(F)F)N=N5)cc4)CC3)C(=O)Cc3ccc(F)c(C(F)(F)F)c3)nc3ncccc3c2=O)cc1 (stereo not given),inhibition,[14],80%
COc1ccc(Cn2cc(C(=O)N[C@H]3CCCC[C@@H]3O)c3ncccc32)cc1,EC50,[15],1800 nM
CC1(C)S[C@@H]2CC[C@]3(CCCN3C(=O)[C@@H]3CCCN3)C(=O)N2[C@H]1C(N)=O,fold change (FC),[16],2.7
same,fold change (FC),[17],2.8
CC1(C)S[C@@H]2CC[C@]3(CCCN3C(=O)[C@@H]3CCCN3)C(=O)N2[C@@H]1C(N)=O,fold change (FC),[16],2.7
same,fold change (FC),[17],2.8
Cc1cc(NC(=O)CS(=O)(=O)c2cn(Cc3ccc(-c4cnn(C)c4)nc3)c3cc(F)cc(F)c23)no1,EC50,[15],310 nM

# Reference: ChEMBL document CHEMBL4308844, “Allosteric Modulation of Class A GPCRs: Targets, Agents, and Emerging Concepts” (J Med Chem, 2018)
